PMC12090182, “Repurposing of the RIPK1-Selective Benzo[1,4]oxazepin-4-one Scaffold for the Development of a Type III LIMK1/2 Inhibitor” (ACS Chemical Biology, 2025)
Read-outs that look alike come from different tables or passages of the source.

Key:
Experiment in all cases: biochemical
Assay type in all cases: binding
[1] = molecular target: 468 kinases including some pathogenic mutants (Homo sapiens, UniProt P42679); conditions: CTK (Entrez MATK), 100 nM; read-out: Percent Control
[2] = molecular target: 468 kinases including some pathogenic mutants (Homo sapiens, UniProt Q9BX84); conditions: TRPM6 (Entrez TRPM6), 1000 nM; read-out: Percent Control
[3] = molecular target: 468 kinases including some pathogenic mutants (Homo sapiens, UniProt P00519, E255K); conditions: read-out: Percent Control
[4] = molecular target: 468 kinases including some pathogenic mutants (Homo sapiens, UniProt Q9P289); conditions: MST4 (Entrez MST4), 100 nM; read-out: Percent Control
[5] = molecular target: 468 kinases including some pathogenic mutants (Homo sapiens, UniProt Q16584); conditions: MLK3 (Entrez MAP3K11), 100 nM; read-out: Percent Control
Sequence of 468 kinases including some pathogenic mutants (Homo sapiens, UniProt Q16584) (Q16584 whole entry, change not shown): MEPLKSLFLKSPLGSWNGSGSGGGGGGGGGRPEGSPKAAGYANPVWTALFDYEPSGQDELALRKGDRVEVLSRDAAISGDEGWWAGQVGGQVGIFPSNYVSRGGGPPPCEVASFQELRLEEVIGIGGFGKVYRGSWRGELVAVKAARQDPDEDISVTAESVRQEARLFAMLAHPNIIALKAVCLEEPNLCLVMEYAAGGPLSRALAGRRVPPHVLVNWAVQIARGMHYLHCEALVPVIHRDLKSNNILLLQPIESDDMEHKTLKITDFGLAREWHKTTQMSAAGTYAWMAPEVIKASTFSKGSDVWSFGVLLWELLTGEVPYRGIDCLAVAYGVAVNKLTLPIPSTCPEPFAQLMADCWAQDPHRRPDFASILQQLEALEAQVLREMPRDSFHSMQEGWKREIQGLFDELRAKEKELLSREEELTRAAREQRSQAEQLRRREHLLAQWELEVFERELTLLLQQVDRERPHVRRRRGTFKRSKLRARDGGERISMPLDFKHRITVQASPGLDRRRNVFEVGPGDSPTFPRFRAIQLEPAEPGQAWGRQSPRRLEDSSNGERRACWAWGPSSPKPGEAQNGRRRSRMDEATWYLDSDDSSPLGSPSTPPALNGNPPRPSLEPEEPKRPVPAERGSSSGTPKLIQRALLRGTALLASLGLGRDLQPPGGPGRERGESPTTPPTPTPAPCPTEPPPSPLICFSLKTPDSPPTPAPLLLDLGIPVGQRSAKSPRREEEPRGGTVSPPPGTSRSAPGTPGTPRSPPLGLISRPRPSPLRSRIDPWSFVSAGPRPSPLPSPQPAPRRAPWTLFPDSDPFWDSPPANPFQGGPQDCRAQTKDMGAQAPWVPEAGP

[6] = molecular target: 468 kinases including some pathogenic mutants (Homo sapiens, UniProt Q13233); conditions: MAP3K1 (Entrez MAP3K1), 1000 nM; read-out: Percent Control
[7] = molecular target: 468 kinases including some pathogenic mutants (Homo sapiens, UniProt Q12851); conditions: MAP4K2 (Entrez MAP4K2), 100 nM; read-out: Percent Control
Sequence of 468 kinases including some pathogenic mutants (Homo sapiens, UniProt Q12851) (Q12851 whole entry, change not shown): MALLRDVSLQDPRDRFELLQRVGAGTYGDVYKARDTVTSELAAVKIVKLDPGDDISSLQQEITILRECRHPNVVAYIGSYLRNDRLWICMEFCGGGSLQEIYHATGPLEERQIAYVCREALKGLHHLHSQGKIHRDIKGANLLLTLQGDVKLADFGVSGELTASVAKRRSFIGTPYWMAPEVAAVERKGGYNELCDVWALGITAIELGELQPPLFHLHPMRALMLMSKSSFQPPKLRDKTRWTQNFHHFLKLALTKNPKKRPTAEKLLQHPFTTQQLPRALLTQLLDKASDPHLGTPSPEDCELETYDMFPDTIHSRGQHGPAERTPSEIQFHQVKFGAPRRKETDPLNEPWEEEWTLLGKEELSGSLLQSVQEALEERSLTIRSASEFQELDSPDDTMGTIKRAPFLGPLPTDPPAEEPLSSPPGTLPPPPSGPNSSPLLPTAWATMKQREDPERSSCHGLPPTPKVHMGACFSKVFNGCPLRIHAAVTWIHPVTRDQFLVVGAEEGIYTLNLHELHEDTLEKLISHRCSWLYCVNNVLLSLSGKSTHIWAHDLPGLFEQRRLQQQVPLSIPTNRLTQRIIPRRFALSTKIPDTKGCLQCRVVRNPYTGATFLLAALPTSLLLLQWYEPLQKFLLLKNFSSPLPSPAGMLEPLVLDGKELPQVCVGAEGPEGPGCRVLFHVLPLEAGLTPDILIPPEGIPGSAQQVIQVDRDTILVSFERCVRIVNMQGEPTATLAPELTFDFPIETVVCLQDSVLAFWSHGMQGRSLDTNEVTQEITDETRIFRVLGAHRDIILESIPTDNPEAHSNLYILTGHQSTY

[8] = molecular target: 468 kinases including some pathogenic mutants (Homo sapiens, UniProt P54760); conditions: EPHB4 (Entrez EPHB4), 100 nM; read-out: Percent Control
[9] = molecular target: 468 kinases including some pathogenic mutants (Homo sapiens, UniProt Q9Y6E0); conditions: MST3 (Entrez STK24), 100 nM; read-out: Percent Control
[10] = molecular target: 468 kinases including some pathogenic mutants (Homo sapiens, UniProt Q16816); conditions: PHKG1 (Entrez PHKG1), 100 nM; read-out: Percent Control
[11] = molecular target: 468 kinases including some pathogenic mutants (Homo sapiens, UniProt Q14289); conditions: PYK2 (Entrez PTK2B), 100 nM; read-out: Percent Control
Sequence of 468 kinases including some pathogenic mutants (Homo sapiens, UniProt Q14289) (Q14289 whole entry, change not shown): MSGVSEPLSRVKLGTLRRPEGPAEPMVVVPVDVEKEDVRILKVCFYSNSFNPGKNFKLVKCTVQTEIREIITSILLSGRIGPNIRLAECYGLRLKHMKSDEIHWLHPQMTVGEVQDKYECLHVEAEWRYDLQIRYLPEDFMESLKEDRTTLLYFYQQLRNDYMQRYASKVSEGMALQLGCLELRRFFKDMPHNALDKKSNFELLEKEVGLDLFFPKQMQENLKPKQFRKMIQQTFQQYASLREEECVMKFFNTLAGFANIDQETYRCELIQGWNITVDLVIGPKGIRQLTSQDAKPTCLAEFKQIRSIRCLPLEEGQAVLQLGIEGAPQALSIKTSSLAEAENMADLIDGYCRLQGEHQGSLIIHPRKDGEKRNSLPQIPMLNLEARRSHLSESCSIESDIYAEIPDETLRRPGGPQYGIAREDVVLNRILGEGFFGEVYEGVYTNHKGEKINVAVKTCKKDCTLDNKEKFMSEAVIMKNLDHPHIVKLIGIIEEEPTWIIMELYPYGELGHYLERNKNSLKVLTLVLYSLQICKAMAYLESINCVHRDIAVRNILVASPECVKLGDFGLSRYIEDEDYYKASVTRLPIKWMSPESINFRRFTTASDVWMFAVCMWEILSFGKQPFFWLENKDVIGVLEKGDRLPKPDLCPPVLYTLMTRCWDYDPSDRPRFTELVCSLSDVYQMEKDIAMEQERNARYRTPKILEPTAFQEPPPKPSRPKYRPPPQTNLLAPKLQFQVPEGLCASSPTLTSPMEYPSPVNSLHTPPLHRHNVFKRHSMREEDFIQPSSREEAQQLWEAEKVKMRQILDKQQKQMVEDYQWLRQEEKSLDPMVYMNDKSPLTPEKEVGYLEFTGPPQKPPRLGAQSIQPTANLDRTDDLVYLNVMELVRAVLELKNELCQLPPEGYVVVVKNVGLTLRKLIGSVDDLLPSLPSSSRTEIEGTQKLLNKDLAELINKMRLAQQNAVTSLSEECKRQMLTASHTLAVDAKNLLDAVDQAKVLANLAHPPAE

[12] = molecular target: 468 kinases including some pathogenic mutants (Homo sapiens, UniProt Q16513); conditions: PKN2 (Entrez PKN2), 1000 nM; read-out: Percent Control
[13] = molecular target: 468 kinases including some pathogenic mutants (Homo sapiens, UniProt Q9NRH2); conditions: SNRK (Entrez SNRK), 1000 nM; read-out: Percent Control
[14] = molecular target: 468 kinases including some pathogenic mutants (Homo sapiens, UniProt P19525); conditions: PRKR (Entrez EIF2AK2), 1000 nM; read-out: Percent Control
Sequence of 468 kinases including some pathogenic mutants (Homo sapiens, UniProt P19525) (P19525 whole entry, change not shown): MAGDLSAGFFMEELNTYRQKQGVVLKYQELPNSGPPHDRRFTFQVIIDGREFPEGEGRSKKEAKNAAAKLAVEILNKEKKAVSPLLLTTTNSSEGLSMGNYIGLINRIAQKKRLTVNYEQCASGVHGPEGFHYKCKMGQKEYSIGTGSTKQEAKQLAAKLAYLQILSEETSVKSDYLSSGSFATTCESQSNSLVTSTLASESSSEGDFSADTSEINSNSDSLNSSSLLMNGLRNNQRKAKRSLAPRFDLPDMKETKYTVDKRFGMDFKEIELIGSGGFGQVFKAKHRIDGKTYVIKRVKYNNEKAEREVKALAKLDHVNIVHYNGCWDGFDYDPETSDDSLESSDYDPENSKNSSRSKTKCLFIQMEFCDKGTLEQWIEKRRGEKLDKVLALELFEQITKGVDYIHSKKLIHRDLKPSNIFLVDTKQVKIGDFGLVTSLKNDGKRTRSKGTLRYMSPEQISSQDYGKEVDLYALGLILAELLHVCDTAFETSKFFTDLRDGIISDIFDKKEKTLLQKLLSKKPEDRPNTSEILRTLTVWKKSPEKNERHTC

[15] = tested on: 468 kinases including some pathogenic mutants
[16] = molecular target: 468 kinases including some pathogenic mutants (Homo sapiens, UniProt Q9HBH9); conditions: MKNK2 (Entrez MKNK2), 1000 nM; read-out: Percent Control
Sequence of 468 kinases including some pathogenic mutants (Homo sapiens, UniProt Q9HBH9) (Q9HBH9 whole entry, change not shown): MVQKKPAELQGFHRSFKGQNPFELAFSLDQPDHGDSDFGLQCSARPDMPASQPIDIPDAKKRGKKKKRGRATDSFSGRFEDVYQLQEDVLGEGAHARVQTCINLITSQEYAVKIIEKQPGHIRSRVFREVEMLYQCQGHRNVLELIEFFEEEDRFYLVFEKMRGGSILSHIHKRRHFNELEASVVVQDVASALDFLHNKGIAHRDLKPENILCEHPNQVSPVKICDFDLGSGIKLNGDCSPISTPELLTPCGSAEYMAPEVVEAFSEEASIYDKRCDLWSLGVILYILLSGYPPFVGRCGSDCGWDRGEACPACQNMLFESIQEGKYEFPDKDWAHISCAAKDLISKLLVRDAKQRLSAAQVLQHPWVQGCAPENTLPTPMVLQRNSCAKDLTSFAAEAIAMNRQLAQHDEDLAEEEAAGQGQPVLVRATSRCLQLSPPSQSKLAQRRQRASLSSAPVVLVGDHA

[17] = molecular target: 468 kinases including some pathogenic mutants (Homo sapiens, UniProt Q32MK0); conditions: MLCK (Entrez MYLK3), 100 nM; read-out: Percent Control
[18] = molecular target: 468 kinases including some pathogenic mutants (Homo sapiens, UniProt P07949); conditions: RET (Entrez RET), 1000 nM; read-out: Percent Control
[19] = molecular target: 468 kinases including some pathogenic mutants (Homo sapiens, UniProt P36888, D835V); conditions: read-out: Percent Control
[20] = molecular target: 468 kinases including some pathogenic mutants (Homo sapiens, UniProt O14965); conditions: AURKA (Entrez AURKA), 100 nM; read-out: Percent Control
Sequence of 468 kinases including some pathogenic mutants (Homo sapiens, UniProt O14965) (O14965 whole entry, change not shown): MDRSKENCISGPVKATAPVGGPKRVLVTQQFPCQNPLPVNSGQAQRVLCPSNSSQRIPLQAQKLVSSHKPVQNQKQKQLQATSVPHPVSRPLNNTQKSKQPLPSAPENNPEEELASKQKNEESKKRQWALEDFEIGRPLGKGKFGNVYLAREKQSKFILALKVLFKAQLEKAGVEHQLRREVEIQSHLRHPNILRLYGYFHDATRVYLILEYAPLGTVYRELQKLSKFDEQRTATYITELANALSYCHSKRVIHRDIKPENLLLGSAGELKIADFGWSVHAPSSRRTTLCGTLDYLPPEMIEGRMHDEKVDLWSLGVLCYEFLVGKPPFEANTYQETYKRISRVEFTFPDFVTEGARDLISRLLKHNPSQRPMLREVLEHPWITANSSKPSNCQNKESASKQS

[21] = molecular target: 468 kinases including some pathogenic mutants (Homo sapiens, UniProt P53779); conditions: JNK3 (Entrez MAPK10), 100 nM; read-out: Percent Control
Sequence of 468 kinases including some pathogenic mutants (Homo sapiens, UniProt P53779) (P53779 whole entry, change not shown): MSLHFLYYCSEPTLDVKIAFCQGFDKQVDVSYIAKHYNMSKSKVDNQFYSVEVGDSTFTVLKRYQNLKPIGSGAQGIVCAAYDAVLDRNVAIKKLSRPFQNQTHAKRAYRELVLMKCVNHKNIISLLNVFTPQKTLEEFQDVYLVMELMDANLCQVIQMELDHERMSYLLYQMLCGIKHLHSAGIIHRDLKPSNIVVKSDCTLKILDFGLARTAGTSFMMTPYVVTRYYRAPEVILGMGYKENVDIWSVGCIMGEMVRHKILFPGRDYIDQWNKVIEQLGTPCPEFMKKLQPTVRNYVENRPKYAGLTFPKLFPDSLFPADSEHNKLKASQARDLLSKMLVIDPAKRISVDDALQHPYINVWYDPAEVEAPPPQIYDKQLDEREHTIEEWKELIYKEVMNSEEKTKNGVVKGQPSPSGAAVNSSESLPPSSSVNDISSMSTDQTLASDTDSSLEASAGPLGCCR

[22] = molecular target: 468 kinases including some pathogenic mutants (Homo sapiens, UniProt O14730); conditions: RIOK3 (Entrez RIOK3), 100 nM; read-out: Percent Control
[23] = molecular target: 468 kinases including some pathogenic mutants (Homo sapiens, UniProt P78356); conditions: PIP5K2B (Entrez PIP4K2B), 100 nM; read-out: Percent Control
Sequence of 468 kinases including some pathogenic mutants (Homo sapiens, UniProt P78356) (P78356 whole entry, change not shown): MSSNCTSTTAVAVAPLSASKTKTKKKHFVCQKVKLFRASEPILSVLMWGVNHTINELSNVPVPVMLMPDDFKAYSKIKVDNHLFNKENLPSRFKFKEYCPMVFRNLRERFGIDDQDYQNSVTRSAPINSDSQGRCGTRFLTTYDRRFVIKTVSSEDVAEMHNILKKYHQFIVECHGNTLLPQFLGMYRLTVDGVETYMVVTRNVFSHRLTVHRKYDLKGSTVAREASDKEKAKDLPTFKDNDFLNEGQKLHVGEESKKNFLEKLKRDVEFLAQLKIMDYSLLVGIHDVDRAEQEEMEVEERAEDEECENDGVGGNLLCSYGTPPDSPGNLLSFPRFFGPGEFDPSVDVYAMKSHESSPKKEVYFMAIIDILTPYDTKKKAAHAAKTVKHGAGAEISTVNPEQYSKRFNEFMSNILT

[24] = molecular target: 468 kinases including some pathogenic mutants (Homo sapiens, UniProt Q13976); conditions: PRKG1 (Entrez PRKG1), 100 nM; read-out: Percent Control
[25] = molecular target: 468 kinases including some pathogenic mutants (Homo sapiens, UniProt Q96Q40); conditions: PFTAIRE2 (Entrez CDK15), 100 nM; read-out: Percent Control
[26] = molecular target: 468 kinases including some pathogenic mutants (Homo sapiens, UniProt Q6ZN16); conditions: MAP3K15 (Entrez MAP3K15), 1000 nM; read-out: Percent Control
[27] = molecular target: 468 kinases including some pathogenic mutants (Homo sapiens, UniProt P10721, V559D/V654A); conditions: read-out: Percent Control
[28] = molecular target: 468 kinases including some pathogenic mutants (Homo sapiens, UniProt P10721, V559D); conditions: read-out: Percent Control
[29] = molecular target: 468 kinases including some pathogenic mutants (Homo sapiens, UniProt Q9UM73, C1156Y); conditions: read-out: Percent Control
[30] = molecular target: 468 kinases including some pathogenic mutants (Homo sapiens, UniProt P00519, F317L); conditions: read-out: Percent Control

CN1C(=O)[C@@H](N2CCc3c(nn(Cc4ccccc4)c3C(N)=O)C2=O)COc2cc(Cl)ccc21 [Compound 10, (S)-2-benzyl-6-(8-chloro-5-methyl-4-oxo-2,3,4,5-tetrahydrobenzo[b][1,4]oxazepin-3-yl)-7-oxo-4,5,6,7-tetrahydro-2H-pyrazolo[3,4-c]pyridine-3-carboxamide]
remaining activity at 0.1 µM [1]: 100%
remaining activity at 1 µM [2]: 100%
remaining activity at 0.1 µM [3]: 84%
remaining activity at 0.1 µM [4]: 77%
remaining activity at 0.1 µM [5]: 100%
remaining activity at 1 µM [6]: 100%
remaining activity at 0.1 µM [7]: 70%
remaining activity at 0.1 µM [8]: 72%
remaining activity at 0.1 µM [9]: 97%
remaining activity at 0.1 µM [10]: 94%
remaining activity at 0.1 µM [11]: 88%
remaining activity at 1 µM [12]: 100%
remaining activity at 1 µM [13]: 100%
remaining activity at 1 µM [14]: 100%
Percent Control [15]: 100%
Percent Control ([15]; FLT3(ITD) (Entrez FLT3), 100 nM): 54%
remaining activity at 1 µM [16]: 100%
remaining activity at 0.1 µM [17]: 91%
remaining activity at 1 µM [18]: 100%
remaining activity at 0.1 µM [19]: 88%
remaining activity at 0.1 µM [20]: 58%
remaining activity at 0.1 µM [21]: 77%
remaining activity at 0.1 µM [22]: 63%
remaining activity at 0.1 µM [23]: 55%
remaining activity at 0.1 µM [24]: 78%
remaining activity at 0.1 µM [25]: 82%
remaining activity at 1 µM [26]: 100%
remaining activity at 0.1 µM [27]: 82%
remaining activity at 0.1 µM [28]: 69%
remaining activity at 0.1 µM [29]: 93%
remaining activity at 0.1 µM [30]: 88%
